# PubChem BioAssay AID1918993 (Molecular Pharmacology Branch, DTP, NCI, 2023)
# pIC50: −log10 of the molar value. Values joined by “and” are separate entries in the source; they are usually repeats but may differ in a detail not shown here. Equal entries are not always repeated.
# Tested on: 233499-124-R-J3-PDC complex spheroid growth
# Test: Anticancer human tumor 233499-124-R-J3-PDC patient-derived colon adenocarcinoma cell line growth inhibition [AhR]
# Conditions: for viability, T/C: stronger effect = lower value
# Text: Multicellular complex tumor spheroid response to aryl hydrocarbon receptor antagonists in combination with a variety of drugs and investigational agents in selected tumor cell lines
# The current study was undertaken to assess response to aryl hydrocarbon receptor antagonists in combination with standard-of-care drugs and investigational agents in solid tumor complex spheroid models. Complex spheroids include a stromal component modeled by human endothelial cells (HUVEC) and fibroblasts modeled by human mesenchymal stem cells (MSCs). The concentration ranges selected for each drug and investigational agent were based upon clinically achievable concentrations if the clinical Cmax of the agent was known.
# Compounds. The drugs and investigational agents: BAY 2416964 (NSC825713), GNF351 (NSC835774), CH-223191 (NSC835775), CPI-455 (NSC825282), aza-TdCyd (NSC777586), decitabine (NSC127716), belinostat (NSC758774), entinostat (NSC756642), pevonedistat (NSC761192), tazemetostat (NSC777109), talazoparib (NSC765396), olaparib (NSC753686), selinexor (NSC780203), nedisertib (M3814, NSC802822), bortezomib (NSC756655), venetoclax (NSC766270), doxorubicin (NSC123127), elimusertib (BAY189344, NSC800525), ceralasertib (AZD6738, NSC777638), TAK-243 (NSC785004), alisertib (NSC759677), etoposide (NSC141540), topotecan (NSC609699), eribulin (NSC707389), gemcitabine (NSC613327), carboplatin (NSC241240), cisplatin (NSC119875), and SN-38 (NSC673596) were obtained from the National Cancer Institute (NCI) Developmental Therapeutics Program Chemical Repository (32). The FDA-approved anticancer drug set is available from the Developmental Therapeutics Program at https://dtp.cancer.gov/organization/dscb/obtaining/available plates.htm. […] The stock solutions were prepared in dimethyl sulfoxide (DMSO, Sigma-Aldrich, St. Louis, MO, cat. D2650), except for the platinum compounds which were prepared in saline (Quality Biological, Gaithersburg, MD, cat. 114-055-101), at 800-fold the tested concentration and stored at -70 degrees C prior to their use. All drugs and investigational agents were tested over a range starting from a high concentration at or near the clinical Cmax and decreasing in half-log increments. If the clinical Cmax for an agent had not been determined, the highest concentration tested was 10 microM (Table 1).
# Cell Culture. All cells were maintained in an incubator at 37 degrees C and 5% CO2 with 95% humidity. The PDC lines were cultured according to standard operating procedures established by the NCI PDMR (https://pdmr.cancer.gov). Briefly, all PDCs were thawed and cultured in Matrigel-coated flasks prepared with a working solution of 1X Ham's F-12 nutrient mix, without supplementation (Invitrogen, Waltham, MA, cat. 11765054), 100 U/mL penicillin-streptomycin (Invitrogen, cat. 15140122), and 2.5% Matrigel (Corning Inc., Corning, NY, cat. 354248) for the first three passages. All PDCs were cultured in complete DMEM/F-12 media containing advanced DMEM/F-12 (Invitrogen, cat. 12634028), 4.9% defined fetal bovine serum, heat inactivated (HyClone Laboratories Inc., Logan, UT, cat. SH30070.03HI), 389 ng/mL hydrocortisone (Sigma-Aldrich, cat. H4001), 9.7 ng/mL human EGF recombinant protein (Invitrogen, cat. PHG0313), 23.4 microg/mL adenine (Sigma-Aldrich, cat. A2786), 97.3 U/mL penicillin-streptomycin (Invitrogen, cat. 15140122), 1.9 mM L-glutamine (Invitrogen, cat. 25030081), and 9.7 microM Y-27632 dihydrochloride (Tocris Bioscience, Bristol, United Kingdom, cat. 1254). The PDCs were cultured in complete DMEM/F12 media without 10 microM Y-27632 dihydrochloride for at least two passages prior to the screen. The established cell lines NCI-H1341 and […] were cultured in DMEM/F-12, HEPES (Invitrogen, cat. 11330032), 5% defined fetal bovine serum (HyClone Laboratories Inc., cat. SH30070.03), ITS premix universal culture supplement [insulin (5 microg/mL), transferrin (5 microg/mL), and selenious acid (5 ng/mL)] […]
# [1] = curve of first compound, second compound 0.1 µM
# [2] = curve of first compound, second compound 0.316 µM
# [3] = curve of first compound, second compound 1 µM
# [4] = curve of first compound, second compound 3.16 µM
# [5] = curve of first compound, second compound 10 µM
# 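Also: spheroids exposed to agents for seven days before reading.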
compound,measurement,setting,value
CC(C)CC(NC(=O)C(Cc1ccccc1)NC(=O)c1cnccn1)B(O)O (configuration not stated) + Cc1ccccc1N=Nc1ccc(NC(=O)c2ccnn2C)c(C)c1,pIC50,[1],7.79
same,pIC50,[2],7.78
same,pIC50,[3],7.74
same,pIC50,[4],7.81
same,pIC50,[5],7.76
same,"viability, T/C","second compound 0.1 µM, first compound 0.000949 µM",103%
same,"viability, T/C","second compound 0.1 µM, first compound 0.003 µM",110%
same,"viability, T/C","second compound 0.1 µM, first compound 0.00949 µM",94.1%
same,"viability, T/C","second compound 0.1 µM, first compound 0.03 µM",0.26%
same,"viability, T/C","second compound 0.1 µM, first compound 0.0949 µM",0.06%
same,"viability, T/C","second compound 0.1 µM, first compound 0.3 µM",0.13%
same,"viability, T/C","second compound 0.316 µM, first compound 0.000949 µM",99.4%
same,"viability, T/C","second compound 0.316 µM, first compound 0.003 µM",108%
same,"viability, T/C","second compound 0.316 µM, first compound 0.00949 µM",94.5%
same,"viability, T/C","second compound 0.316 µM, first compound 0.03 µM",1.73%
same,"viability, T/C","second compound 0.316 µM, first compound 0.0949 µM",0.06%
same,"viability, T/C","second compound 0.316 µM, first compound 0.3 µM",0.13%
same,"viability, T/C","second compound 1 µM, first compound 0.000949 µM",111%
same,"viability, T/C","second compound 1 µM, first compound 0.003 µM",110%
same,"viability, T/C","second compound 1 µM, first compound 0.00949 µM",98.1%
same,"viability, T/C","second compound 1 µM, first compound 0.03 µM",12.9%
same,"viability, T/C","second compound 1 µM, first compound 0.0949 µM",0.64%
same,"viability, T/C","second compound 1 µM, first compound 0.3 µM",0.14%
same,"viability, T/C","second compound 3.16 µM, first compound 0.000949 µM",111%
same,"viability, T/C","second compound 3.16 µM, first compound 0.003 µM",96.9%
same,"viability, T/C","second compound 3.16 µM, first compound 0.00949 µM",83.8%
same,"viability, T/C","second compound 3.16 µM, first compound 0.03 µM",5.62%
same,"viability, T/C","second compound 3.16 µM, first compound 0.0949 µM",0.09%
same,"viability, T/C","second compound 3.16 µM, first compound 0.3 µM",0.14%
same,"viability, T/C","second compound 10 µM, first compound 0.000949 µM",106%
same,"viability, T/C","second compound 10 µM, first compound 0.003 µM",108%
same,"viability, T/C","second compound 10 µM, first compound 0.00949 µM",105%
same,"viability, T/C","second compound 10 µM, first compound 0.03 µM",0.37%
same,"viability, T/C","second compound 10 µM, first compound 0.0949 µM",0.18%
same,"viability, T/C","second compound 10 µM, first compound 0.3 µM",0.22%
Nc1ccccc1NC(=O)c1ccc(CNC(=O)OCc2cccnc2)cc1 + Cc1ccccc1N=Nc1ccc(NC(=O)c2ccnn2C)c(C)c1,pIC50,[1],5.29
same,pIC50,[2],5.25
same,pIC50,[3],5.26
same,pIC50,[4],5.27
same,pIC50,[5],5.32
same,"viability, T/C","second compound 0.1 µM, first compound 0.0316 µM",116%
same,"viability, T/C","second compound 0.1 µM, first compound 0.1 µM",93.3%
same,"viability, T/C","second compound 0.1 µM, first compound 0.316 µM",106%
same,"viability, T/C","second compound 0.1 µM, first compound 1 µM",129%
same,"viability, T/C","second compound 0.1 µM, first compound 3.16 µM",80%
same,"viability, T/C","second compound 0.1 µM, first compound 10 µM",7.02%
same,"viability, T/C","second compound 0.316 µM, first compound 0.0316 µM",116%
same,"viability, T/C","second compound 0.316 µM, first compound 0.1 µM",103%
same,"viability, T/C","second compound 0.316 µM, first compound 0.316 µM",119%
same,"viability, T/C","second compound 0.316 µM, first compound 1 µM",113%
same,"viability, T/C","second compound 0.316 µM, first compound 3.16 µM",93%
same,"viability, T/C","second compound 0.316 µM, first compound 10 µM",7.54%
same,"viability, T/C","second compound 1 µM, first compound 0.0316 µM",116%
same,"viability, T/C","second compound 1 µM, first compound 0.1 µM",107%
same,"viability, T/C","second compound 1 µM, first compound 0.316 µM",117%
same,"viability, T/C","second compound 1 µM, first compound 1 µM",130%
same,"viability, T/C","second compound 1 µM, first compound 3.16 µM",86.4%
same,"viability, T/C","second compound 1 µM, first compound 10 µM",9.07%
same,"viability, T/C","second compound 3.16 µM, first compound 0.0316 µM",112%
same,"viability, T/C","second compound 3.16 µM, first compound 0.1 µM",106%
same,"viability, T/C","second compound 3.16 µM, first compound 0.316 µM",118%
same,"viability, T/C","second compound 3.16 µM, first compound 1 µM",113%
same,"viability, T/C","second compound 3.16 µM, first compound 3.16 µM",86.8%
same,"viability, T/C","second compound 3.16 µM, first compound 10 µM",6.35%
same,"viability, T/C","second compound 10 µM, first compound 0.0316 µM",93.4%
same,"viability, T/C","second compound 10 µM, first compound 0.1 µM",108%
same,"viability, T/C","second compound 10 µM, first compound 0.316 µM",105%
same,"viability, T/C","second compound 10 µM, first compound 1 µM",109%
same,"viability, T/C","second compound 10 µM, first compound 3.16 µM",74.4%
same,"viability, T/C","second compound 10 µM, first compound 10 µM",7.59%
CC1(C)CCC(CN2CCN(c3ccc(C(=O)NS(=O)(=O)c4ccc(NCC5CCOCC5)c([N+](=O)[O-])c4)c(Oc4cnc5[nH]ccc5c4)c3)CC2)=C(c2ccc(Cl)cc2)C1,"viability, T/C",compound 0.0316 µM,87.2% and 90.9% and 106%
same,"viability, T/C",compound 0.1 µM,102% and 112% and 109%
same,"viability, T/C",compound 0.316 µM,92.4% and 105% and 97.8%
same,"viability, T/C",compound 1 µM,105% and 101% and 104%
same,"viability, T/C",compound 3.16 µM,112% and 114% and 98.7%
same,"viability, T/C",compound 10 µM,109% and 42.8% and 31.2%
same,pIC50,curve of compound,< 5.00 and 5.06 and 5.14
